Test results from patent publication US5284999A, “DNA encoding a pituitary-specific thyroid hormone receptor” (Brigham and Women's Hospital, priority 1993, dated 1994).

Tested on: r-ErbAβ-2 protein (PSTHR, pituitary-specific thyroid hormone receptor)
Assay: Competition experiments with thyroid hormone analogs on r-ErbAβ-2 protein
Format: binding, rat

SMILES: O=C(O)Cc1cc(I)c(Oc2ccc(O)c(I)c2)c(I)c1 [triac, 3,5,3'-triiodothyrocetic acid]
- affinity of the r-ErbAβ-2 protein (rank order among analogs): greatest
